In PubChem BioAssay (NCI):
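The concentration for 50% growth inhibition is given as GI50. TGI is the concentration that stops growth completely.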

Tests used:
Assay in all cases: NCI anticancer screen, dose series, 384-well format
SF-539 CNS = system: SF-539 CNS
HCT-15 colon = system: HCT-15 colon
SNB-19 CNS = system: SNB-19 CNS
OVCAR-4 ovarian = system: OVCAR-4 ovarian
DU-145 prostate = system: DU-145 prostate
ACHN renal = system: ACHN renal
HT29 colon = system: HT29 colon
HL-60(TB) leukemia = system: HL-60(TB) leukemia
NCI-H23 lung = system: NCI-H23 lung
UACC-257 melanoma = system: UACC-257 melanoma
SK-MEL-2 melanoma = system: SK-MEL-2 melanoma
HCC-2998 colon = system: HCC-2998 colon
RPMI-8226 leukemia = system: RPMI-8226 leukemia
MOLT-4 leukemia = system: MOLT-4 leukemia
UACC-62 melanoma = system: UACC-62 melanoma
HOP-92 NSCLC = system: HOP-92 NSCLC
CAKI-1 renal = system: CAKI-1 renal
MDA-MB-435 melanoma = system: MDA-MB-435 melanoma
MDA-MB-468 breast = system: MDA-MB-468 breast
COLO 205 colon = system: COLO 205 colon
SR leukemia = system: SR leukemia
NCI-H226 lung = system: NCI-H226 lung
CCRF-CEM leukemia = system: CCRF-CEM leukemia
NCI-H460 NSCLC = system: NCI-H460 NSCLC
HCT-116 colon = system: HCT-116 colon
RXF 393 renal = system: RXF 393 renal
U251 glioblastoma = system: U251 glioblastoma
UO-31 renal = system: UO-31 renal
MALME-3M melanoma = system: MALME-3M melanoma

Cc1c(-c2ccc(N3CCc4cccc(C(=O)Nc5nc6ccccc6s5)c4C3)nc2C(=O)O)cnn1CC12CC3CC(CC(C3)C1)C2
GI50 (SF-539 CNS): 14.6 µM
TGI (SF-539 CNS): 27.8 µM
GI50 (HCT-15 colon): 4.28 µM
TGI (HCT-15 colon): 16.6 µM
GI50 (SNB-19 CNS): 10 µM
TGI (SNB-19 CNS): 21.6 µM
GI50 (OVCAR-4 ovarian): 0.0115 µM
TGI (OVCAR-4 ovarian): 13.2 µM
GI50 (DU-145 prostate): 16.7 µM
TGI (DU-145 prostate): 30.4 µM
GI50 (ACHN renal): 11.6 µM
TGI (ACHN renal): 23.8 µM
GI50 (HT29 colon): 12.9 µM
TGI (HT29 colon): 25.6 µM
GI50 (HL-60(TB) leukemia): 2.53 µM
TGI (HL-60(TB) leukemia): 5.94 µM
GI50 (NCI-H23 lung): 8.42 µM
TGI (NCI-H23 lung): 20.9 µM
GI50 (UACC-257 melanoma): 9.83 µM
TGI (UACC-257 melanoma): 21.5 µM
GI50 (SK-MEL-2 melanoma): < 0.01 µM
TGI (SK-MEL-2 melanoma): 2.67 µM
GI50 (HCC-2998 colon): < 0.01 µM
TGI (HCC-2998 colon): 0.0661 µM
GI50 (RPMI-8226 leukemia): < 0.01 µM
TGI (RPMI-8226 leukemia): < 0.01 µM
GI50 (MOLT-4 leukemia): < 0.01 µM
TGI (MOLT-4 leukemia): < 0.01 µM
GI50 (UACC-62 melanoma): 13.6 µM
TGI (UACC-62 melanoma): 26.4 µM
GI50 (HOP-92 NSCLC): < 0.01 µM
TGI (HOP-92 NSCLC): 0.0174 µM
GI50 (CAKI-1 renal): 13.8 µM
TGI (CAKI-1 renal): 26.8 µM
GI50 (MDA-MB-435 melanoma): 2.47 µM
TGI (MDA-MB-435 melanoma): 14 µM
GI50 (MDA-MB-468 breast): 1.7 µM
TGI (MDA-MB-468 breast): 7.04 µM
GI50 (COLO 205 colon): 0.272 µM
TGI (COLO 205 colon): 1.73 µM
GI50 (SR leukemia): 0.0191 µM
TGI (SR leukemia): 2.47 µM
GI50 (NCI-H226 lung): 1 µM
TGI (NCI-H226 lung): 11.5 µM
GI50 (CCRF-CEM leukemia): < 0.01 µM
TGI (CCRF-CEM leukemia): 0.0112 µM
GI50 (NCI-H460 NSCLC): 17.1 µM
TGI (NCI-H460 NSCLC): 30.8 µM
GI50 (HCT-116 colon): 3.88 µM
TGI (HCT-116 colon): 16.9 µM
GI50 (RXF 393 renal): < 0.01 µM
TGI (RXF 393 renal): 0.0108 µM
GI50 (U251 glioblastoma): 11.6 µM
TGI (U251 glioblastoma): 23.9 µM
GI50 (UO-31 renal): 1.14 µM
TGI (UO-31 renal): 12 µM
GI50 (MALME-3M melanoma): 11.6 µM
